From PubChem BioAssay AID2060508 (Molecular Pharmacology Branch, DTP, NCI, 2025)

test system: 454973-116-R2-J3-PDC spheroids, viability, % test/control; test: Anticancer human tumor 454973-116-R2-J3-PDC patient-derived pancreatic carcinoma cell line growth inhibition [GQUAD]; settings: second compound 10 µM; first compound 0.0316 µM; hits give low values; spheroids with HUVEC and MSC
Outline: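 Multi-cell-type spheroids of tumor cells with HUVEC and mesenchymal stem cells, treated with drug combinations. Concentrations descend in half-log steps from near clinical Cmax, or from 10 microM where Cmax is unknown; viability read-out.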
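Note: spheroids exposed to compounds for seven days; 100% = DMSO vehicle control viability.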

With `CC1COCCN1c1cc(C2(S(C)(=N)=O)CC2)nc(-c2ccnc3[nH]ccc23)n1` (configuration not stated) + Cc1[nH]c2ccc(F)cc2c1-c1nc2c3cccnc3c3ncccc3c2[nH]1 as the compound, how does the viability, T/C read?
The viability, T/C was 86.7%.

How did the viability, T/C turn out when `COc1ccc([C@@H](O)c2cc(-c3ncnc4cc(N5CCOCC5)ccc34)c(F)cc2Cl)nn1` + Cc1[nH]c2ccc(F)cc2c1-c1nc2c3cccnc3c3ncccc3c2[nH]1 was run?
Its viability, T/C is 89.2%.

same assay, conditions: second compound 10 µM; first compound 0.1 µM; hits give low values; spheroids with HUVEC and MSC

`CC(C)(O)C1CCC(Nc2ccc3ncc(-c4cccc(C(F)(F)F)c4)n3n2)CC1` (configuration not stated) + CN(C)c1ccc(Nc2c3ccc(NC(=O)CCN4CCCC4)cc3nc3cc(NC(=O)CCN4CCCC4)ccc23)cc1 was tested. Which viability, T/C did it give?
The viability, T/C was 64.8%.

`COc1ncnc(C2CC2)c1-c1ncc2cnn(Cc3ccc(-c4nc(C(F)(F)F)cn4C(C)C)cc3)c2n1` + CN(C)c1ccc(Nc2c3ccc(NC(=O)CCN4CCCC4)cc3nc3cc(NC(=O)CCN4CCCC4)ccc23)cc1 was tested. Which viability, T/C did it give?
The viability, T/C was 69.4%.

`O=C(NO)c1cnc(N2CCN(S(=O)(=O)c3ccc4ccccc4c3)CC2)nc1` + CN(C)c1ccc(Nc2c3ccc(NC(=O)CCN4CCCC4)cc3nc3cc(NC(=O)CCN4CCCC4)ccc23)cc1 was tested. Which viability, T/C did it give?
The viability, T/C was 55.8%.

With `CC(C)n1c(=O)n(C)c2cnc3cc(F)c(-c4ccc(OCCCN5CCCCC5)nc4)cc3c21` + Cc1[nH]c2ccc(F)cc2c1-c1nc2c3cccnc3c3ncccc3c2[nH]1 as the compound, how does the viability, T/C read?
Its viability, T/C is 91.9%.

With `CC1COCCN1c1cc(-c2ccnn2C)c2ccnc(-c3ccn[nH]3)c2n1` (configuration not stated) + Cc1[nH]c2ccc(F)cc2c1-c1nc2c3cccnc3c3ncccc3c2[nH]1 as the compound, how does the viability, T/C read?
Its viability, T/C is 53.1%.

With `CC1COCCN1c1cc(C2(S(C)(=N)=O)CC2)nc(-c2ccnc3[nH]ccc23)n1` (configuration not stated) + Cc1[nH]c2ccc(F)cc2c1-c1nc2c3cccnc3c3ncccc3c2[nH]1 as the compound, how does the viability, T/C read?
Its viability, T/C is 84%.

Which viability, T/C does the source give for `COc1ccc([C@@H](O)c2cc(-c3ncnc4cc(N5CCOCC5)ccc34)c(F)cc2Cl)nn1` + Cc1[nH]c2ccc(F)cc2c1-c1nc2c3cccnc3c3ncccc3c2[nH]1 here?
The viability, T/C was 80.2%.

same assay, conditions: second compound 10 µM; first compound 0.316 µM; hits give low values; spheroids with HUVEC and MSC

How did the viability, T/C turn out when `CC(C)(O)C1CCC(Nc2ccc3ncc(-c4cccc(C(F)(F)F)c4)n3n2)CC1` (configuration not stated) + CN(C)c1ccc(Nc2c3ccc(NC(=O)CCN4CCCC4)cc3nc3cc(NC(=O)CCN4CCCC4)ccc23)cc1 was run?
The viability, T/C was 55%.

For `COc1ncnc(C2CC2)c1-c1ncc2cnn(Cc3ccc(-c4nc(C(F)(F)F)cn4C(C)C)cc3)c2n1` + CN(C)c1ccc(Nc2c3ccc(NC(=O)CCN4CCCC4)cc3nc3cc(NC(=O)CCN4CCCC4)ccc23)cc1, which viability, T/C is on record?
Its viability, T/C is 77.2%.

How did the viability, T/C turn out when `O=C(NO)c1cnc(N2CCN(S(=O)(=O)c3ccc4ccccc4c3)CC2)nc1` + CN(C)c1ccc(Nc2c3ccc(NC(=O)CCN4CCCC4)cc3nc3cc(NC(=O)CCN4CCCC4)ccc23)cc1 was run?
The viability, T/C was 34.1%.

`CC(C)n1c(=O)n(C)c2cnc3cc(F)c(-c4ccc(OCCCN5CCCCC5)nc4)cc3c21` + Cc1[nH]c2ccc(F)cc2c1-c1nc2c3cccnc3c3ncccc3c2[nH]1 was tested. Which viability, T/C did it give?
Its viability, T/C is 88.3%.

Which viability, T/C does the source give for `CC1COCCN1c1cc(-c2ccnn2C)c2ccnc(-c3ccn[nH]3)c2n1` (configuration not stated) + Cc1[nH]c2ccc(F)cc2c1-c1nc2c3cccnc3c3ncccc3c2[nH]1 here?
The viability, T/C was 29.8%.

Which viability, T/C does the source give for `CC1COCCN1c1cc(C2(S(C)(=N)=O)CC2)nc(-c2ccnc3[nH]ccc23)n1` (configuration not stated) + Cc1[nH]c2ccc(F)cc2c1-c1nc2c3cccnc3c3ncccc3c2[nH]1 here?
Its viability, T/C is 89.6%.

`COc1ccc([C@@H](O)c2cc(-c3ncnc4cc(N5CCOCC5)ccc34)c(F)cc2Cl)nn1` + Cc1[nH]c2ccc(F)cc2c1-c1nc2c3cccnc3c3ncccc3c2[nH]1 was tested. Which viability, T/C did it give?
The viability, T/C was 93.9%.

same assay, conditions: second compound 10 µM; first compound 1 µM; hits give low values; spheroids with HUVEC and MSC

With `CC(C)(O)C1CCC(Nc2ccc3ncc(-c4cccc(C(F)(F)F)c4)n3n2)CC1` (configuration not stated) + CN(C)c1ccc(Nc2c3ccc(NC(=O)CCN4CCCC4)cc3nc3cc(NC(=O)CCN4CCCC4)ccc23)cc1 as the compound, how does the viability, T/C read?
Its viability, T/C is 48.1%.

For `COc1ncnc(C2CC2)c1-c1ncc2cnn(Cc3ccc(-c4nc(C(F)(F)F)cn4C(C)C)cc3)c2n1` + CN(C)c1ccc(Nc2c3ccc(NC(=O)CCN4CCCC4)cc3nc3cc(NC(=O)CCN4CCCC4)ccc23)cc1, which viability, T/C is on record?
The viability, T/C was 66.5%.

For `O=C(NO)c1cnc(N2CCN(S(=O)(=O)c3ccc4ccccc4c3)CC2)nc1` + CN(C)c1ccc(Nc2c3ccc(NC(=O)CCN4CCCC4)cc3nc3cc(NC(=O)CCN4CCCC4)ccc23)cc1, which viability, T/C is on record?
Its viability, T/C is 2.57%.

How did the viability, T/C turn out when `CC(C)n1c(=O)n(C)c2cnc3cc(F)c(-c4ccc(OCCCN5CCCCC5)nc4)cc3c21` + Cc1[nH]c2ccc(F)cc2c1-c1nc2c3cccnc3c3ncccc3c2[nH]1 was run?
The viability, T/C was 93.7%.

For `CC1COCCN1c1cc(-c2ccnn2C)c2ccnc(-c3ccn[nH]3)c2n1` (configuration not stated) + Cc1[nH]c2ccc(F)cc2c1-c1nc2c3cccnc3c3ncccc3c2[nH]1, which viability, T/C is on record?
Its viability, T/C is 18.3%.

Which viability, T/C does the source give for `CC1COCCN1c1cc(C2(S(C)(=N)=O)CC2)nc(-c2ccnc3[nH]ccc23)n1` (configuration not stated) + Cc1[nH]c2ccc(F)cc2c1-c1nc2c3cccnc3c3ncccc3c2[nH]1 here?
The viability, T/C was 86.2%.

`COc1ccc([C@@H](O)c2cc(-c3ncnc4cc(N5CCOCC5)ccc34)c(F)cc2Cl)nn1` + Cc1[nH]c2ccc(F)cc2c1-c1nc2c3cccnc3c3ncccc3c2[nH]1 was tested. Which viability, T/C did it give?
Its viability, T/C is 72.2%.

same assay, conditions: second compound 10 µM; first compound 3.16 µM; hits give low values; spheroids with HUVEC and MSC

For `CC(C)(O)C1CCC(Nc2ccc3ncc(-c4cccc(C(F)(F)F)c4)n3n2)CC1` (configuration not stated) + CN(C)c1ccc(Nc2c3ccc(NC(=O)CCN4CCCC4)cc3nc3cc(NC(=O)CCN4CCCC4)ccc23)cc1, which viability, T/C is on record?
The viability, T/C was 12.1%.

With `COc1ncnc(C2CC2)c1-c1ncc2cnn(Cc3ccc(-c4nc(C(F)(F)F)cn4C(C)C)cc3)c2n1` + CN(C)c1ccc(Nc2c3ccc(NC(=O)CCN4CCCC4)cc3nc3cc(NC(=O)CCN4CCCC4)ccc23)cc1 as the compound, how does the viability, T/C read?
Its viability, T/C is 61.9%.

Which viability, T/C does the source give for `O=C(NO)c1cnc(N2CCN(S(=O)(=O)c3ccc4ccccc4c3)CC2)nc1` + CN(C)c1ccc(Nc2c3ccc(NC(=O)CCN4CCCC4)cc3nc3cc(NC(=O)CCN4CCCC4)ccc23)cc1 here?
The viability, T/C was 0.19%.

With `CC(C)n1c(=O)n(C)c2cnc3cc(F)c(-c4ccc(OCCCN5CCCCC5)nc4)cc3c21` + Cc1[nH]c2ccc(F)cc2c1-c1nc2c3cccnc3c3ncccc3c2[nH]1 as the compound, how does the viability, T/C read?
The viability, T/C was 79.9%.

`CC1COCCN1c1cc(-c2ccnn2C)c2ccnc(-c3ccn[nH]3)c2n1` (configuration not stated) + Cc1[nH]c2ccc(F)cc2c1-c1nc2c3cccnc3c3ncccc3c2[nH]1 was tested. Which viability, T/C did it give?
The viability, T/C was 23.1%.

How did the viability, T/C turn out when `CC1COCCN1c1cc(C2(S(C)(=N)=O)CC2)nc(-c2ccnc3[nH]ccc23)n1` (configuration not stated) + Cc1[nH]c2ccc(F)cc2c1-c1nc2c3cccnc3c3ncccc3c2[nH]1 was run?
The viability, T/C was 51.8%.

`COc1ccc([C@@H](O)c2cc(-c3ncnc4cc(N5CCOCC5)ccc34)c(F)cc2Cl)nn1` + Cc1[nH]c2ccc(F)cc2c1-c1nc2c3cccnc3c3ncccc3c2[nH]1 was tested. Which viability, T/C did it give?
Its viability, T/C is 66.9%.

same assay, conditions: second compound 10 µM; first compound 10 µM; hits give low values; spheroids with HUVEC and MSC

With `CC(C)(O)C1CCC(Nc2ccc3ncc(-c4cccc(C(F)(F)F)c4)n3n2)CC1` (configuration not stated) + CN(C)c1ccc(Nc2c3ccc(NC(=O)CCN4CCCC4)cc3nc3cc(NC(=O)CCN4CCCC4)ccc23)cc1 as the compound, how does the viability, T/C read?
Its viability, T/C is 10.4%.

With `COc1ncnc(C2CC2)c1-c1ncc2cnn(Cc3ccc(-c4nc(C(F)(F)F)cn4C(C)C)cc3)c2n1` + CN(C)c1ccc(Nc2c3ccc(NC(=O)CCN4CCCC4)cc3nc3cc(NC(=O)CCN4CCCC4)ccc23)cc1 as the compound, how does the viability, T/C read?
Its viability, T/C is 50.8%.

For `O=C(NO)c1cnc(N2CCN(S(=O)(=O)c3ccc4ccccc4c3)CC2)nc1` + CN(C)c1ccc(Nc2c3ccc(NC(=O)CCN4CCCC4)cc3nc3cc(NC(=O)CCN4CCCC4)ccc23)cc1, which viability, T/C is on record?
Its viability, T/C is 0.77%.

Which viability, T/C does the source give for `CC(C)n1c(=O)n(C)c2cnc3cc(F)c(-c4ccc(OCCCN5CCCCC5)nc4)cc3c21` + Cc1[nH]c2ccc(F)cc2c1-c1nc2c3cccnc3c3ncccc3c2[nH]1 here?
Its viability, T/C is 59.7%.

For `CC1COCCN1c1cc(-c2ccnn2C)c2ccnc(-c3ccn[nH]3)c2n1` (configuration not stated) + Cc1[nH]c2ccc(F)cc2c1-c1nc2c3cccnc3c3ncccc3c2[nH]1, which viability, T/C is on record?
The viability, T/C was 22.6%.

With `CC1COCCN1c1cc(C2(S(C)(=N)=O)CC2)nc(-c2ccnc3[nH]ccc23)n1` (configuration not stated) + Cc1[nH]c2ccc(F)cc2c1-c1nc2c3cccnc3c3ncccc3c2[nH]1 as the compound, how does the viability, T/C read?
Its viability, T/C is 30.1%.

For `COc1ccc([C@@H](O)c2cc(-c3ncnc4cc(N5CCOCC5)ccc34)c(F)cc2Cl)nn1` + Cc1[nH]c2ccc(F)cc2c1-c1nc2c3cccnc3c3ncccc3c2[nH]1, which viability, T/C is on record?
Its viability, T/C is 43.4%.
